Tests used:
Assay in all cases: relative viability (nuclei count vs DMSO), 5 days (fraction); higher = more cells survive
[1] = compound: CCn1c(-c2nonc2N)nc2cnc(Oc3cccc(NC(=O)c4ccc(OCCN5CCOCC5)cc4)c3)cc21 + N=C(N)NC(=N)NCCc1ccccc1 [Phenformin] (partner 250 µM)
Outline: (§1)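 Values are medians from duplicate plates. Each reflects relative viability, defined as the nuclei count of treated wells over that of vehicle wells. Lung cancer cell lines in 1536-well plates were pin-tool dosed one day after seeding with one drug alone or with a fixed anchor-drug dose plus five library-drug doses (not always all listed) in √10 steps, then fixed, stained and imaged at 4× after 5 days.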

[2] = compound: CCn1c(-c2nonc2N)nc2cnc(Oc3cccc(NC(=O)c4ccc(OCCN5CCOCC5)cc4)c3)cc21 + CC(C)C[C@H](NC(=O)[C@H](Cc1ccccc1)NC(=O)c1cnccn1)B(O)O [Bortezomib] (partner 0.002 µM)
Outline: as §1

[3] = compound: N=C1NC(=O)/C(=C/c2ccc(O)cc2)S1 [Mirin] + CS(=O)(=O)N1CCN(Cc2cc3nc(-c4cccc5[nH]ncc45)nc(N4CCOCC4)c3s2)CC1 [Pictilisib] (partner 1 µM)
Outline: as §1

[4] = compound: CCC1=CN=CN=C1N2CCN(CC2)CC3=NC4=C(N3)C=C(C=C4)C(F)(F)F + N=C(N)NC(=N)NCCc1ccccc1 [Phenformin] (partner 250 µM)
Outline: as §1

## UMC-11
[1]; first compound 0.04 µM
  relative viability: 0.304
[1]; first compound 0.1265 µM
  relative viability: 0.25
[1]; first compound 0.4 µM
  relative viability: 0.198
[1]; first compound 1.265 µM
  relative viability: 0.225
[1]; first compound 4 µM
  relative viability: 0.129
[2]; first compound 0.04 µM
  relative viability: 0.999
[2]; first compound 0.1265 µM
  relative viability: 0.439
[2]; first compound 0.4 µM
  relative viability: 0.312
[2]; first compound 1.265 µM
  relative viability: 0.161
[2]; first compound 4 µM
  relative viability: 0.135
[3]; first compound 0.25 µM
  relative viability: 0.798
[3]; first compound 0.7906 µM
  relative viability: 0.164
[3]; first compound 2.5 µM
  relative viability: 0.849
[3]; first compound 7.906 µM
  relative viability: 0.509
[3]; first compound 25 µM
  relative viability: 0.4
[4]; first compound 0.04 µM
  relative viability: 0.327
[4]; first compound 0.1265 µM
  relative viability: 0.3
[4]; first compound 0.4 µM
  relative viability: 0.319
[4]; first compound 1.265 µM
  relative viability: 0.279
[4]; first compound 4 µM
  relative viability: 0.294

Reference: the supplement of paper PMC10307832
